From patent US6992079B2, “Substituted 11-phenyl-dibenzazepine compounds useful for the treatment or prevention of diseases characterized by abnormal cell proliferation” (President Fellows of Harvard College, priority 1997, dated 2006)
Like-named read-outs stand apart in the source and are kept apart here.

Assays:
A549 = test: SRB antiproliferative assay; format: cell-based; details: Homo sapiens, A549, A549 (Lung), 5% FCS/5 day incubation
Excerpt: (§1) The cells were passaged using Trypsin (Gibco).

HEPG2 = test: SRB antiproliferative assay; format: cell-based; details: Homo sapiens, HepG2, HEPG2 (Hepatocel), 5% FCS/5 day incubation
Excerpt: as §1

HT29 [1] = test: SRB antiproliferative assay; format: cell-based; details: Homo sapiens, HT-29, HT29 (Colon), 5% FCS/5 day incubation
Excerpt: as §1

HeLa = test: SRB antiproliferative assay; format: cell-based; details: Homo sapiens, HeLa (Cervical), 5% FCS/5 day incubation
Excerpt: as §1

MCF7 = test: SRB antiproliferative assay; format: cell-based; details: Homo sapiens, MCF7, MCF7 (Breast), 5% FCS/5 day incubation
Excerpt: as §1

U118MG = test: SRB antiproliferative assay; format: cell-based; details: Homo sapiens, U-118-MG, U118MG (CNS), 5% FCS/5 day incubation
Excerpt: as §1

[2] = tested on: H209 small lung cell carcinoma; test: Mouse xenograft tumor growth; format: in vivo, SCID mice
[3] = tested on: panel of human cancer cells; test: In vitro screening, SRB, panel of 60 human cancer cell lines; format: cell-based
A549/ATCC = format: cell-based
COLO 205 = test: In-Vitro Testing SRB panel: Colon Cancer; format: cell-based
HCT-15 = test: In-Vitro Testing SRB panel: Colon Cancer; format: cell-based
HT29 [4] = test: In-Vitro Testing SRB panel: Colon Cancer; format: cell-based
SF-539 = test: In-Vitro Testing SRB panel: CNS Cancer; format: cell-based
U251 = test: In-Vitro Testing SRB panel: CNS Cancer; format: cell-based
MALM-3M = test: In-Vitro Testing SRB panel: Melanoma; format: cell-based
SK-MEL-2 = test: In-Vitro Testing SRB panel: Melanoma; format: cell-based
786-0 = test: In-Vitro Testing SRB panel: Renal Cancer; format: cell-based
TK-10 = test: In-Vitro Testing SRB panel: Renal Cancer; format: cell-based
[5] = In-Vitro Testing SRB panel: Renal Cancer; format: cell-based
NCI/ADR-RES = test: In-Vitro Testing SRB panel: Breast Cancer; format: cell-based
OVCAR-3 = test: In-Vitro Testing SRB panel: Ovarian Cancer

With COc1ccc2c(c1)CN(C(=O)c1ccc([N+](=O)[O-])cc1)c1ccc(Cl)cc1C2c1ccccc1Cl (stereo not shown) [Compound 30] the IC50 (A549) was 1.5 µM, the IC50 (HEPG2) was 0.9 µM and the IC50 (HT29 [1]) was 0.6 µM. It also gave an IC50 (HeLa) of 0.5 µM, an IC50 (MCF7) of 1.3 µM and an IC50 (U118MG) of 0.8 µM. The tumor growth [2] was “showed inhibition of tumor growth”, the “activity against the human cell panel” value [3] was “exhibited activity against the human cell panel” and the TGI (A549/ATCC; A549/ATCC) was greater than 1.00E−04 Molar. The “Percent Growth” value (A549/ATCC; A549/ATCC, Log10 concentration −4.0 Molar) was 23%, the “Percent Growth” value (A549/ATCC; A549/ATCC, Log10 concentration −5.0 Molar) was 25% and the “Percent Growth” value (A549/ATCC; A549/ATCC, Log10 concentration −6.0 Molar) was 81%. For the same molecule, the “Percent Growth” value (A549/ATCC; A549/ATCC, Log10 concentration −7.0 Molar) was 96%, the “Percent Growth” value (A549/ATCC; A549/ATCC, Log10 concentration −8.0 Molar) was 96% and the GI50 (A549/ATCC; Homo sapiens, A549) was 3.57 µM. For the same molecule, the CC50 (A549/ATCC; Homo sapiens, A549/ATCC, read-out: LC50 (the source's name)) was greater than 100 µM, the TGI (COLO 205; COLO 205) was greater than 1.00E−04 Molar and the “Percent Growth” value (COLO 205; COLO 205, Log10 concentration −4.0 Molar) was 43%. For the same molecule, the “Percent Growth” value (COLO 205; COLO 205, Log10 concentration −5.0 Molar) was 46%, the “Percent Growth” value (COLO 205; COLO 205, Log10 concentration −6.0 Molar) was 68% and the “Percent Growth” value (COLO 205; COLO 205, Log10 concentration −7.0 Molar) was 87%. For the same molecule, the “Percent Growth” value (COLO 205; COLO 205, Log10 concentration −8.0 Molar) was 93%, the GI50 (COLO 205; Homo sapiens, COLO 205) was 6.64 µM and the CC50 (COLO 205; Homo sapiens, COLO 205, read-out: LC50 (the source's name)) was greater than 100 µM. The TGI (HCT-15; HCT-15) was greater than 1.00E−04 Molar, the “Percent Growth” value (HCT-15; HCT-15, Log10 concentration −4.0 Molar) was 39% and the “Percent Growth” value (HCT-15; HCT-15, Log10 concentration −5.0 Molar) was 40%. The “Percent Growth” value (HCT-15; HCT-15, Log10 concentration −6.0 Molar) was 77%, the “Percent Growth” value (HCT-15; HCT-15, Log10 concentration −7.0 Molar) was 98% and the “Percent Growth” value (HCT-15; HCT-15, Log10 concentration −8.0 Molar) was 109%. For the same molecule, the GI50 (HCT-15; Homo sapiens, HCT-15) was 5.28 µM, the CC50 (HCT-15; Homo sapiens, HCT-15, read-out: LC50 (the source's name)) was greater than 100 µM and the TGI (HT29 [4]; HT29) was greater than 1.00E−04 Molar. For the same molecule, the “Percent Growth” value (HT29 [4]; HT29, Log10 concentration −4.0 Molar) was 20%, the “Percent Growth” value (HT29 [4]; HT29, Log10 concentration −5.0 Molar) was 22% and the “Percent Growth” value (HT29 [4]; HT29, Log10 concentration −6.0 Molar) was 70%. For the same molecule, the “Percent Growth” value (HT29 [4]; HT29, Log10 concentration −7.0 Molar) was 93%, the “Percent Growth” value (HT29 [4]; HT29, Log10 concentration −8.0 Molar) was 91% and the GI50 (HT29 [4]; Homo sapiens, HT-29) was 2.63 µM. It also gave a CC50 (HT29 [4]; Homo sapiens, HT-29, HT29, read-out: LC50 (the source's name)) greater than 100 µM, a GI50 (SF-539; Homo sapiens, SF-539) of 3.87 µM and a CC50 (SF-539; Homo sapiens, SF-539, read-out: LC50 (the source's name)) greater than 100 µM. For the same molecule, the TGI (SF-539; SF-539) was greater than 1.00E−04 Molar, the “Percent Growth” value (SF-539; SF-539, Log10 concentration −4.0 Molar) was 20% and the “Percent Growth” value (SF-539; SF-539, Log10 concentration −5.0 Molar) was 33%. For the same molecule, the “Percent Growth” value (SF-539; SF-539, Log10 concentration −6.0 Molar) was 75%, the “Percent Growth” value (SF-539; SF-539, Log10 concentration −7.0 Molar) was 92% and the “Percent Growth” value (SF-539; SF-539, Log10 concentration −8.0 Molar) was 93%. For the same molecule, the GI50 (U251; Homo sapiens, U-251) was 5.1 µM, the CC50 (U251; Homo sapiens, U-251, U251, read-out: LC50 (the source's name)) was greater than 100 µM and the TGI (U251; U251) was greater than 1.00E−04 Molar. For the same molecule, the “Percent Growth” value (U251; U251, Log10 concentration −4.0 Molar) was 37%, the “Percent Growth” value (U251; U251, Log10 concentration −5.0 Molar) was 37% and the “Percent Growth” value (U251; U251, Log10 concentration −6.0 Molar) was 81%. The “Percent Growth” value (U251; U251, Log10 concentration −7.0 Molar) was 103%, the “Percent Growth” value (U251; U251, Log10 concentration −8.0 Molar) was 94% and the GI50 (MALM-3M; Homo sapiens) was 0.342 µM. For the same molecule, the CC50 (MALM-3M; Homo sapiens, MALM-3M, read-out: LC50 (the source's name)) was greater than 100 µM, the TGI (MALM-3M; MALM-3M) was 8.35E−05 Molar and the “Percent Growth” value (MALM-3M; MALM-3M, Log10 concentration −4.0 Molar) was −4%. The “Percent Growth” value (MALM-3M; MALM-3M, Log10 concentration −5.0 Molar) was 49%, the “Percent Growth” value (MALM-3M; MALM-3M, Log10 concentration −6.0 Molar) was 16% and the “Percent Growth” value (MALM-3M; MALM-3M, Log10 concentration −7.0 Molar) was 82%. For the same molecule, the “Percent Growth” value (MALM-3M; MALM-3M, Log10 concentration −8.0 Molar) was 96%, the GI50 (SK-MEL-2; Homo sapiens, SK-MEL-2) was greater than 100 µM and the CC50 (SK-MEL-2; Homo sapiens, SK-MEL-2, read-out: LC50 (the source's name)) was greater than 100 µM. The TGI (SK-MEL-2; SK-MEL-2) was greater than 1.00E−04 Molar, the “Percent Growth” value (SK-MEL-2; SK-MEL-2, Log10 concentration −4.0 Molar) was 71% and the “Percent Growth” value (SK-MEL-2; SK-MEL-2, Log10 concentration −5.0 Molar) was 74%. The “Percent Growth” value (SK-MEL-2; SK-MEL-2, Log10 concentration −6.0 Molar) was 95%, the “Percent Growth” value (SK-MEL-2; SK-MEL-2, Log10 concentration −7.0 Molar) was 94% and the “Percent Growth” value (SK-MEL-2; SK-MEL-2, Log10 concentration −8.0 Molar) was 102%. For the same molecule, the TGI (786-0; 786-0) was greater than 1.00E−04 Molar, the “Percent Growth” value (786-0; 786-0, Log10 concentration −4.0 Molar) was 28% and the “Percent Growth” value (786-0; 786-0, Log10 concentration −5.0 Molar) was 11%. The “Percent Growth” value (786-0; 786-0, Log10 concentration −6.0 Molar) was 92%, the “Percent Growth” value (786-0; 786-0, Log10 concentration −7.0 Molar) was 98% and the “Percent Growth” value (786-0; 786-0, Log10 concentration −8.0 Molar) was 98%. It also gave a GI50 (786-0; Homo sapiens, 786-0) of 3.28 µM, a CC50 (786-0; Homo sapiens, 786-0, read-out: LC50 (the source's name)) greater than 100 µM and a GI50 (TK-10; Homo sapiens, TK-10) of 27 µM. The CC50 (TK-10; Homo sapiens, TK-10, read-out: LC50 (the source's name)) was greater than 100 µM, the TGI (TK-10; TK-10) was greater than 1.00E−04 Molar and the “Percent Growth” value (TK-10; TK-10, Log10 concentration −4.0 Molar) was 41%. For the same molecule, the “Percent Growth” value (TK-10; TK-10, Log10 concentration −5.0 Molar) was 57%, the “Percent Growth” value (TK-10; TK-10, Log10 concentration −6.0 Molar) was 93% and the “Percent Growth” value (TK-10; TK-10, Log10 concentration −7.0 Molar) was 101%. For the same molecule, the “Percent Growth” value (TK-10; TK-10, Log10 concentration −8.0 Molar) was 100%, the GI50 ([5]; Homo sapiens) was 7.81 µM and the CC50 ([5]; Homo sapiens, OO-31, read-out: LC50 (the source's name)) was greater than 100 µM. For the same molecule, the TGI ([5]; OO-31) was greater than 1.00E−04 Molar, the “Percent Growth” value ([5]; OO-31, Log10 concentration −4.0 Molar) was 43% and the “Percent Growth” value ([5]; OO-31, Log10 concentration −5.0 Molar) was 43%. The “Percent Growth” value ([5]; OO-31, Log10 concentration −6.0 Molar) was 107%, the “Percent Growth” value ([5]; OO-31, Log10 concentration −7.0 Molar) was 94% and the “Percent Growth” value ([5]; OO-31, Log10 concentration −8.0 Molar) was 98%. It also gave a TGI (NCI/ADR-RES) greater than 1.00E−04 Molar, a GI50 (NCI/ADR-RES; Homo sapiens) of 62.4 µM and a CC50 (NCI/ADR-RES; Homo sapiens, read-out: LC50 (the source's name)) greater than 100 µM. The “Percent Growth” value (NCI/ADR-RES; Log10 concentration −4.0 Molar) was 47%, the “Percent Growth” value (NCI/ADR-RES; Log10 concentration −5.0 Molar) was 61% and the “Percent Growth” value (NCI/ADR-RES; Log10 concentration −6.0 Molar) was 104%. For the same molecule, the “Percent Growth” value (NCI/ADR-RES; Log10 concentration −7.0 Molar) was 117%, the “Percent Growth” value (NCI/ADR-RES; Log10 concentration −8.0 Molar) was 124% and the GI50 (OVCAR-3; Homo sapiens, OVCAR-3) was 10.2 µM. For the same molecule, the CC50 (OVCAR-3; Homo sapiens, OVCAR-3, read-out: LC50) was greater than 100 µM, the TGI (OVCAR-3; OVCAR-3) was greater than 1.00E−04 Molar and the “Percent Growth” value (OVCAR-3; OVCAR-3, Log10 concentration −4.0 Molar) was 43%. For the same molecule, the “Percent Growth” value (OVCAR-3; OVCAR-3, Log10 concentration −5.0 Molar) was 50%, the “Percent Growth” value (OVCAR-3; OVCAR-3, Log10 concentration −6.0 Molar) was 89% and the “Percent Growth” value (OVCAR-3; OVCAR-3, Log10 concentration −7.0 Molar) was 105%. For the same molecule, the “Percent Growth” value (OVCAR-3; OVCAR-3, Log10 concentration −8.0 Molar) was 95%.
